US12209141B2, “Dipeptide compounds and uses thereof” (HUAHAI US INC., priority 2018, dated 2025)

Tests used:
[1] = system: venous thrombosis in SD Rat; test: Venous thrombosis in rat; format: in vivo; parameters: wet weight of thrombus: unit not given here; settings: for antithrombotic effect (in words): single oral dose of 10 mg/kg
Description: Animals: SD Rat (Weight 180˜210 g, Sex Male)
Solution preparation: Weigh proper amount of the test chemical, dissolved in DMSO to give the stock solutions, serial dilution with water then provided the required concentration of administration dosage.
Experimental procedures: After 3-day adaptive breeding, male Sprague-Dawley rats were randomly divided into groups: model group, positive drug group and compound groups, with 4˜6 rats in each group.
The rats in the model group were given either intravenous injection or intragastric administration with equivalent solvent, those in the positive or compound group were given either intravenous injection or intragastric administration in a dose of 10 mg/kg.
The left renal vein was ligated with a silk thread to initiate thrombus formation. After 6 hours of stasis, another ligature was made at the distal side 2 cm apart from the first, thrombus formed inside the vessel was carefully removed, blotted on wet filter paper and weighed.

[2] = Solubility tests at different pH values; format: physicochemical; settings: aqueous buffer, thermodynamic from solid, 37° C.
Description: Weigh proper amount of the test chemical into buffered salt solutions with different pH value (4.0, 6.3, 7.4 and 9.0), the suspension was shaken at 37° C. for 1 hour. Precipitated and undissolved residues were removed by centrifugation. The content of the supernatant was determined by HPLC to analyze the solubility of the test chemical.

Pharmacokinetics in dog = format: in vivo, Beagle Dog; settings: single i.v. dose of 2 mg/kg
Description: (§1) Intragastric solution preparation: proper amount of the test chemical was weighed, and dissolved in DMSO to give the stock solution, which was then diluted serially with 0.5% CMC-Na solution to the required concentration of administration dosage.
(§2) IV solution preparation: proper amount of compound (V) was weighed, and dissolved in normal saline to give the stock solution, which was then diluted serially to the required concentration of administration dosage.
Experimental procedures: After 3-day adaptive breeding, male dogs were divided into groups randomly with 4 dogs in each group.
(§3) Dogs were orally given 5 mg/kg of the test compound via gavage for oral study or given 2 mg/kg of compound (V) via the femoral vein for intravenous (i.v.) study. Blood samples were collected at 15 min, 30 min, 1 h, 1.5 h, 2 h, 4 h, 6 h, 8 h, 10 h, and 24 h after dosing and were analyzed by LC-MS/MS after pretreatment.
(§4) WPS software was used to calculate the mean value, standard deviation, precision and accuracy of each sample.

Pharmacokinetics in rat = format: in vivo, SD Rat; settings: single i.v. dose of 2 mg/kg
Description: Animals: SD Rat (Weight 200˜300 g, Sex Male)
as §1, §2
Experimental procedures: After 3-day adaptive breeding, male Sprague-Dawley rats were divided into groups randomly with 4 rats in each group.
as §3, with “Rats were” for “Dogs were”, “given 10” for “given 5”, “collected from the orbitat” for “collected”
as §4

[3] = Plasma stability (incubation in rat whole blood, conversion to compound (V)); format: in vitro ADME; settings: study period of 8 h
Description: An aliquot of 1 ml of rat whole blood was mixed with 50 ul of stock solution containing the test substance in DMSO (1 mg/ml) to obtain final concentration of 50 ug/ml. The mixture was incubated at 37° C. Samples were taken at time points of 0 min, 30 min, 1 h, 2 h, 4 h and 8 h, and then added to an organic solvent to terminate the reaction. After pretreatment each sample was analyzed by LC-MS/MS to determine the plasma concentrations of compound (III), compound (IV) and compound (V). […] The hydrolysis of the carbamate bond of each compound was accomplished within 30 minutes

[4] = single oral administration 10 mg/kg, Model 28.4 ± 7.5
[5] = single intravenous injection 10 mg/kg, compared with dabigatran, Model 22.7 ± 3.5
[6] = single intravenous injection 10 mg/kg, compared with melagatran, Model 19.6 ± 3.7
[7] = male, Sprague-Dawley, plasma, iv

For `CCCCCCOC(=O)N=C(N)c1ccc(CNC(=O)[C@@H]2CCCN2C(=O)[C@@H](CC(C)C)NCC(=O)OC(C)(C)C)cc1.Cl` [Compound 19, N-[(tert-butyloxy)carbonyl]methyl-D-leucyl-L-prolyl-{4-[N′-(hexyloxycarbonyl)carbamimidoyl]benzyl} amide hydrochloride], the “antithrombotic effect (in words)” value ([1]; rat) was “significant antithrombotic effect” and the “wet weight of thrombus” value [1, 4] was 13.9 ± 6.0.
For `CCOC(=O)CN[C@H](CC(C)C)C(=O)N1CCC[C@H]1C(=O)NCc1ccc(C(N)=NC(=O)OCCOC)cc1.Cl` [Compound 2, N-[(ethoxy)carbonyl]methyl-D-leucyl-L-prolyl-{4-[N′-((2-(methoxy)ethoxy)carbonyl)carbamimidoyl]benzyl}amide hydrochloride], the “antithrombotic effect (in words)” value ([1]; rat) was “significant antithrombotic effect” and the “wet weight of thrombus” value [1, 4] was 16.7 ± 8.0.
In the case of `CCOC(=O)CN[C@H](CC(C)C)C(=O)N1CCC[C@H]1C(=O)NCc1ccc(C(N)=NC(=O)OCCOCCOCc2ccccc2)cc1.Cl` [Compound 8, N-[(ethoxy)carbonyl]methyl-D-leucyl-L-prolyl-{4-[N′-((2-(2-(benzyloxy)ethoxy)ethoxy)carbonyl)carbamimidoyl]benzyl} amide hydrochloride], the “antithrombotic effect (in words)” value ([1]; rat) is reported as “significant antithrombotic effect” and the “wet weight of thrombus” value [1, 4] is reported as 12.5 ± 3.1.
With `CCOCCCOC(=O)N=C(N)c1ccc(CNC(=O)[C@@H]2CCCN2C(=O)[C@@H](CC(C)C)NCC(=O)OCC)cc1.Cl` [Compound 10, N-[(ethoxy)carbonyl]methyl-D-leucyl-L-prolyl-{4-[N′-((3-(ethoxy)propoxy)carbonyl)carbamimidoyl]benzyl} amide hydrochloride] the “antithrombotic effect (in words)” value ([1]; rat) was “significant antithrombotic effect”, the “wet weight of thrombus” value [1, 4] was 14.6 ± 3.6 and the solubility at 1 h ([2]; pH 4.0, buffered salt solution) was 6520 µM. It also gave a solubility at 1 h ([2]; pH 6.3, buffered salt solution) of 3350 µM, a solubility at 1 h ([2]; pH 7.4, buffered salt solution) of 495 µM and a solubility at 1 h ([2]; pH 9.0, buffered salt solution) of 119 µM.
In the case of `CCCCCCOC(=O)N=C(N)c1ccc(CNC(=O)[C@@H]2CCCN2C(=O)[C@@H](CC(C)C)NCC(=O)OCC)cc1.Cl` [Compound 17, N-[(ethoxy)carbonyl]methyl-D-leucyl-L-prolyl-{4-[N′-(hexyloxycarbonyl)carbamimidoyl]benzyl} amide hydrochloride], the “antithrombotic effect (in words)” value ([1]; rat) is reported as “significant antithrombotic effect”, the “wet weight of thrombus” value [1, 4] is reported as 11.0 ± 5.5 and the solubility at 1 h ([2]; pH 4.0, buffered salt solution) is reported as 5840 µM. It also gave a solubility at 1 h ([2]; pH 6.3, buffered salt solution) of 3720 µM, a solubility at 1 h ([2]; pH 7.4, buffered salt solution) of 693 µM and a solubility at 1 h ([2]; pH 9.0, buffered salt solution) of 147 µM.
With `CCOC(=O)CN[C@H](CC(C)C)C(=O)N1CCC[C@H]1C(=O)NCc1ccc(C(N)=NC(=O)CC(C)C(=O)OCC)cc1.Cl` (stereo partly drawn) [Compound 12, N-[(ethoxy)carbonyl]methyl-D-leucyl-L-prolyl-{4-[N′-((2-(ethoxycarbonyl)propyl)carbonyl)carbamimidoyl]benzyl} amide hydrochloride] the “antithrombotic effect (in words)” value ([1]; rat) was “significant antithrombotic effect” and the “wet weight of thrombus” value [1, 4] was 20.5 ± 4.7.
Work on `CC(C)C[C@@H](NCC(=O)O)C(=O)N1CCC[C@H]1C(=O)NCc1ccc(C(=N)N)cc1` [Compound of Formula (V)] yielded an AUC(0-inf) (Pharmacokinetics in dog; male, beagle, plasma, iv) of 4340 ng·h/mL, a Cmax (Pharmacokinetics in dog; male, beagle, plasma, iv) of 4040 ng/mL and a half-life (Pharmacokinetics in dog; male, beagle, plasma, iv) of 11.8 h. The CLz/F (Pharmacokinetics in dog) was 7.9 mL/min/kg, the “anti-thrombotic activity (in words)” value ([1]; rat, single injection at 10 mg/kg) was “superior anti-thrombotic activity compared to dabigatran and melagatran” and the “wet weight of thrombus” value [1, 5] was 13.3 ± 1.5. For the same compound, the “wet weight of thrombus” value [1, 6] was 6.8 ± 5.0, the AUC(0-inf) (Pharmacokinetics in rat; [7]) was 2960 ng·h/mL and the Cmax (Pharmacokinetics in rat; [7]) was 4720 ng/mL. The half-life (Pharmacokinetics in rat; [7]) was 5.02 h, the CLz/F (Pharmacokinetics in rat) was 11.6 mL/min/kg and the “stability in plasma stability experiment (in words)” value [3] was “substantially stable, with no significant degradation”.
With `N=C(N)c1ccc(CNC(=O)[C@@H]2CCN2C(=O)[C@H](NCC(=O)O)C2CCCCC2)cc1` [Melagatran, reference compound] the “wet weight of thrombus” value [1, 6] was 7.8 ± 7.6.
With `CCOC(=O)CN[C@H](CC(C)C)C(=O)N1CCC[C@H]1C(=O)NCc1ccc(C(N)=NC(=O)OCc2oc(=O)oc2C)cc1.Cl` [Compound 1, N-[(ethoxy)carbonyl]methyl-D-leucyl-L-prolyl-{4-[N′-(((5-methyl-2-oxo-1,3-dioxol-4-yl)methyl)oxycarbonyl)carbamimidoyl]benzyl} amide hydrochloride] the “antithrombotic effect (in words)” value ([1]; rat) was “significant antithrombotic effect”, the “wet weight of thrombus” value [1, 4] was 10.8 ± 5.1 and the solubility at 1 h ([2]; pH 4.0, buffered salt solution) was 7720 µM. For the same compound, the solubility at 1 h ([2]; pH 6.3, buffered salt solution) was 3990 µM, the solubility at 1 h ([2]; pH 7.4, buffered salt solution) was 613 µM and the solubility at 1 h ([2]; pH 9.0, buffered salt solution) was 196 µM.
With `CCOCCOCCOC(=O)N=C(N)c1ccc(CNC(=O)[C@@H]2CCCN2C(=O)[C@@H](CC(C)C)NCC(=O)OCC)cc1.Cl` [Compound 6, N-[(ethoxy)carbonyl]methyl-D-leucyl-L-prolyl-{4-[N′-((2-(2-(ethoxy)ethoxy)ethoxy)carbonyl)carbamimidoyl]benzyl} amide hydrochloride] the “antithrombotic effect (in words)” value ([1]; rat) was “significant antithrombotic effect” and the “wet weight of thrombus” value [1, 4] was 19.7 ± 6.4.
In the case of `[H]/N=C(/N)c1ccc(NCc2nc3cc(C(=O)N(CCC(=O)O)c4ccccn4)ccc3n2C)cc1` [Dabigatran, reference compound], the “wet weight of thrombus” value [1, 5] is reported as 15.7 ± 4.0.
